From ChEMBL document CHEMBL4196035, “Discovery and optimization of ATX inhibitors via modeling, synthesis and biological evaluation” (Eur J Med Chem, 2018) come the findings set out here.

Data set [1] deals with T1, Autotaxin (Homo sapiens, UniProt Q13822). Nature of the data set: Inhibition of human ENPP2 using bis-pNPP as substrate measured every 10 secs for 10 mins by spectrophotometric assay.
For data set [2], the target named is T1, Autotaxin. Nature of the data set: Inhibition of human ENPP2 using FS3 as substrate measured every 5 mins for 30 mins by fluorescence assay.
The nature of data set [3]: Volume of distribution at steady state in Sprague-Dawley rat at 20 mg/kg, iv administered as single bolus dose by HPLC-MS/MS analysis. In kind it is ADME, organism-based. The conditions noted are these: in vivo, read-out: Vdss.
Data set [4] deals with Rattus norvegicus. The experiment in a line: Dose normalized Cmax in Sprague-Dawley rat at 10 mg/kg, iv administered as single bolus dose by HPLC-MS/MS analysis. The class given is ADME, organism-based. The conditions noted are these: in vivo.
Data set [5] can be described thus: Clearance in Sprague-Dawley rat at 2 mg/kg, iv administered as single bolus dose by HPLC-MS/MS analysis. The class given is ADME, organism-based. Conditions: in vivo.
A short description of data set [6]: Cmax in Sprague-Dawley rat at 10 mg/kg, iv administered as single bolus dose by HPLC-MS/MS analysis. Also on record: dose 10 mg/kg, route intravenous. The conditions noted are these: in vivo. In kind it is ADME, organism-based.
Data set [7] can be described thus: Terminal half life in Sprague-Dawley rat at 20 mg/kg, iv administered as single bolus dose by HPLC-MS/MS analysis. The class given is ADME, organism-based. The conditions noted are these: in vivo, read-out: beta t1/2 (converted).
The nature of data set [8]: Volume of distribution at steady state in Sprague-Dawley rat at 10 mg/kg, iv administered as single bolus dose by HPLC-MS/MS analysis. In kind it is ADME, organism-based. Conditions: in vivo, read-out: Vdss.
In data set [9] the test system is Rattus norvegicus. Nature of the data set: Dose normalized Cmax in Sprague-Dawley rat at 2 mg/kg, iv administered as single bolus dose by HPLC-MS/MS analysis. In kind it is ADME, organism-based. The conditions noted are these: in vivo.
The nature of data set [10]: Half life in Sprague-Dawley rat liver microsomes at 5 uM preincubated for 10 mins followed by NADPH addition measured up to 60 mins by LC-MS/MS analysis. In kind it is ADME, microsome. On the technique in general: Liver microsomes are a subcellular fraction often used to study metabolism.
Data set [11] deals with T1, Autotaxin. Nature of the data set: Inhibition of ENPP2 in human A2058 cells using LPC as substrate preincubated for 15 mins followed by substrate addition measured after 3 hrs by LC-MS/MS analysis. The class given is cell-based.
Data set [12] in a line: Cmax in Sprague-Dawley rat at 2 mg/kg, iv administered as single bolus dose by HPLC-MS/MS analysis. In kind it is ADME, organism-based. Also on record: dose 2 mg/kg, route intravenous. The conditions noted are these: in vivo.
Data set [13] can be described thus: AUC in Sprague-Dawley rat at 2 mg/kg, iv administered as single bolus dose by HPLC-MS/MS analysis. The conditions noted are these: in vivo. The class given is ADME, organism-based.
A short description of data set [14]: Terminal half life in Sprague-Dawley rat at 10 mg/kg, iv administered as single bolus dose by HPLC-MS/MS analysis. In kind it is ADME, organism-based. The conditions noted are these: in vivo, read-out: beta t1/2 (converted).
A short description of data set [15]: Clearance in Sprague-Dawley rat at 10 mg/kg, iv administered as single bolus dose by HPLC-MS/MS analysis. In kind it is ADME, organism-based. Conditions: in vivo.
For data set [16], the target named is T1, Autotaxin. The experiment in a line: Inhibition of ENPP2 in human plasma using LPC as substrate preincubated for 15 mins followed by substrate addition measured after 3 hrs by LC-MS/MS analysis.
Data set [17] is described as follows: Clearance in Sprague-Dawley rat at 20 mg/kg, iv administered as single bolus dose by HPLC-MS/MS analysis. The class given is ADME, organism-based. Conditions: in vivo.
The nature of data set [18]: AUC in Sprague-Dawley rat at 20 mg/kg, iv administered as single bolus dose by HPLC-MS/MS analysis. The class given is ADME, organism-based. Conditions: in vivo.
Data set [19] in a line: Metabolic stability in Sprague-Dawley rat liver microsomes assessed as parent compound remaining at 5 uM preincubated for 10 mins followed by NADPH addition measured after 60 mins by LC-MS/MS analysis. Conditions: read-out: Stability. The class given is ADME, microsome.
The subject of data set [20] is Rattus norvegicus. Nature of the data set: Dose normalized AUC in Sprague-Dawley rat at 2 mg/kg, iv administered as single bolus dose by HPLC-MS/MS analysis. The conditions noted are these: in vivo. The class given is ADME, organism-based.
A short description of data set [21]: Tmax in Sprague-Dawley rat at 2 mg/kg, iv administered as single bolus dose by HPLC-MS/MS analysis. The class given is ADME, organism-based. The conditions noted are these: in vivo.
Data set [22] has as its system Rattus norvegicus. Nature of the data set: Dose normalized Cmax in Sprague-Dawley rat at 20 mg/kg, iv administered as single bolus dose by HPLC-MS/MS analysis. The class given is ADME, organism-based. The conditions noted are these: in vivo.
The nature of data set [23]: Metabolic stability in human liver microsomes assessed as parent compound remaining at 5 uM preincubated for 10 mins followed by NADPH addition measured after 60 mins by LC-MS/MS analysis. In kind it is ADME, microsome. Conditions: read-out: Stability.
A short description of data set [24]: Cmax in Sprague-Dawley rat at 20 mg/kg, iv administered as single bolus dose by HPLC-MS/MS analysis. Also on record: dose 20 mg/kg, route intravenous. In kind it is ADME, organism-based. Conditions: in vivo.
The target of data set [25] is T1, Autotaxin. Nature of the data set: Inhibition of ENPP2 in human SKHEP1 cells using LPC as substrate preincubated for 15 mins followed by substrate addition measured after 3 hrs by LC-MS/MS analysis. In kind it is cell-based.
The nature of data set [26]: Tmax in Sprague-Dawley rat at 10 mg/kg, iv administered as single bolus dose by HPLC-MS/MS analysis. In kind it is ADME, organism-based. Conditions: in vivo.
A short description of data set [27]: AUC in Sprague-Dawley rat at 10 mg/kg, iv administered as single bolus dose by HPLC-MS/MS analysis. In kind it is ADME, organism-based. The conditions noted are these: in vivo.
Data set [28] deals with Rattus norvegicus. Nature of the data set: Dose normalized AUC in Sprague-Dawley rat at 20 mg/kg, iv administered as single bolus dose by HPLC-MS/MS analysis. The class given is ADME, organism-based. The conditions noted are these: in vivo.
Data set [29] is described as follows: Half life in human liver microsomes at 5 uM preincubated for 10 mins followed by NADPH addition measured up to 60 mins by LC-MS/MS analysis. In kind it is ADME, microsome.
Data set [30] can be described thus: Tmax in Sprague-Dawley rat at 20 mg/kg, iv administered as single bolus dose by HPLC-MS/MS analysis. The class given is ADME, organism-based. Conditions: in vivo.
A short description of data set [31]: Terminal half life in Sprague-Dawley rat at 2 mg/kg, iv administered as single bolus dose by HPLC-MS/MS analysis. The class given is ADME, organism-based. Conditions: in vivo, read-out: beta t1/2 (converted).
Data set [32] has as its system Rattus norvegicus. The experiment in a line: Dose normalized AUC in Sprague-Dawley rat at 10 mg/kg, iv administered as single bolus dose by HPLC-MS/MS analysis. Conditions: in vivo. The class given is ADME, organism-based.
Data set [33] can be described thus: Volume of distribution at steady state in Sprague-Dawley rat at 2 mg/kg, iv administered as single bolus dose by HPLC-MS/MS analysis. In kind it is ADME, organism-based. Conditions: in vivo, read-out: Vdss.

Where only a bound is given, the exact number is not on record here.

As usually defined, the IC50 is the concentration that inhibits the measured activity by half. `O=C(Nc1ccc(CP(=O)(O)O)cc1)C1CCN(C(=O)OCc2ccccc2Cl)CC1`: the figures for the IC50 against Autotaxin [1] and against Autotaxin [2] were 213 nM and 3.29 nM, respectively.
The matching figures for `O=C(Nc1ccc(CP(=O)(O)O)cc1)C1CCN(C(=O)OCc2ccccc2)CC1`: 255 nM and 7.17 nM.
Turning to `O=C(Nc1ccc(CP(=O)(O)O)cc1)C1CCN(C(=O)OCc2ccccc2F)CC1`, the IC50 at Autotaxin [1] is 453 nM; at Autotaxin [2], 7.13 nM.
Regarding `NS(=O)(=O)Nc1ccc(NC(=O)C2CCN(C(=O)OCc3cc(Cl)cc(Cl)c3)CC2)cc1`, the 50% inhibitory concentration (IC50) was 250 nM at Autotaxin [1] and 8.9 nM against Autotaxin [2].
As to `O=C(Nc1nc(CP(=O)(O)O)cs1)C1CCN(C(=O)OCc2cc(Cl)cc(Cl)c2)CC1`, the figures for the IC50 at Autotaxin [1] and against Autotaxin [2] were 26.5 nM and 1.75 nM, respectively.
The matching figures for `O=C(Nc1ccc(CP(=O)(O)O)cc1)C1CCN(C(=O)OCc2ccc(OC(F)(F)F)cc2)CC1`: 3.12 nM and 1.97 nM.
Consider `O=C(Nc1ccc(CP(=O)(O)O)cc1)C1CCN(C(=O)OCc2cccc(Cl)c2)CC1`, for which the results for the IC50 at Autotaxin [1] and at Autotaxin [2] were 39.6 nM and 1.79 nM, respectively.
On the same counts, the results for `O=C(NO)c1ccc(NC(=O)C2CCN(C(=O)OCc3cc(Cl)cc(Cl)c3)CC2)cc1` are 496 nM and 18.7 nM.
The matching figures for `NS(=O)(=O)Cc1ccc(NC(=O)C2CCN(C(=O)OCc3cc(Cl)cc(Cl)c3)CC2)cc1`: 73.5 nM and 4.62 nM.
Turning to `O=C(O)Cc1ccc(NC(=O)C2CCN(C(=O)OCc3cc(Cl)cc(Cl)c3)CC2)cc1`, the figures for the concentration for half-maximal inhibition (IC50) against Autotaxin [1] and against Autotaxin [2] were 439 nM and 8.44 nM, respectively.
Turning to `O=C(NC1CCN(C(=O)OCc2cc(Cl)cc(Cl)c2)CC1)c1ccc(CP(=O)(O)O)cc1`, the IC50 turned out to be 5.22 nM against Autotaxin [1] and 1.36 nM at Autotaxin [2].
The matching figures for `O=C(Nc1ccc(CP(=O)(O)O)cc1)C1CCN(C(=O)OCc2ccc(OC(F)(F)F)cc2F)CC1`: 2.78 nM and 1.67 nM.
The matching figures for `O=C(NC1CCN(C(=O)OCc2cc(Cl)cc(Cl)c2)C1)c1nc(CP(=O)(O)O)cs1` (centres undefined): 54.7 nM and 3.71 nM.
A word on the clearance: it is the volume of plasma or blood freed of the substance per unit of time. A higher clearance goes with efficient removal. A word on the Cmax: it is the peak of the concentration-time curve. The term AUC denotes concentration integrated over time. The low end stands for low exposure, the high end for high exposure. For orientation: Tmax means the time from dosing to the highest level. Regarding `O=C(Nc1ccc(CP(=O)(O)O)cc1)C1CCN(C(=O)OCc2cc(Cl)cc(Cl)c2)CC1`, the IC50 against Autotaxin [1] came to 2.18 nM; against Autotaxin [11], 1.3 nM; against Autotaxin [16], 136 nM; on Autotaxin [25], 7.9 nM; against Autotaxin [2] it was 1.23 nM. The Vd in data set [3] was 2.24 L/kg; in data set [8] it was 0.33 L/kg; in data set [33], 0.15 L/kg. Also, the Cmax/dose was 11.7 kg/L in the data set on Rattus norvegicus [4], 16.6 kg/L with Rattus norvegicus [9] and 9.98 kg/L in the data set with Rattus norvegicus [22]. For the same molecule, the clearance is 0.68 L/h/kg in [5], 0.8 L/h/kg in data set [15] and 0.73 L/h/kg in data set [17]. For the same molecule, the Cmax came out at 117 µg/mL in data set [6], 33.1 µg/mL in data set [12] and 200 µg/mL in data set [24]. The half-life in data set [7] was 245 min; in data set [14], 42.6 min; in data set [31], 17.4 min. In addition, the half-life at 5 µM in [10] and in data set [29] was more than 60 min each time. Further, the AUC in data set [13] was found to be 3.05 µg·h/mL; in data set [18], 27 µg·h/mL; in data set [27], 12.7 µg·h/mL. Further, the remaining at 1 h, 5 µM in data set [19] and in [23] was more than 99.9% each time. Further, the results for the AUC/dose with Rattus norvegicus [20], with Rattus norvegicus [28] and in the data set on Rattus norvegicus [32] were 1.53 kg·h/L, 1.35 kg·h/L and 1.27 kg·h/L, respectively. For the same molecule, the Tmax in data set [21], in data set [26] and in data set [30] was 1.2 min in each case.
